Measured values reported in patent US11142527B2, “Dihydropyrimidine compounds and uses thereof in medicine” (SUNSHINE LAKE PHARMA CO., LTD., priority 2017, dated 2021).
pEC50: −log10 of the molar value.

Experiments:
[1] = Cytotoxicity test with CellTiter Glo; assay type: cell-based; settings: human, HepG2.2.15 cells, highest concentration 150 μM, read-out: CC50 values of the compounds of the invention
Method: Test 2: Cytotoxicity and Selectivity Index
Methods of Testing Cytotoxicity and Selectivity Index
The serial diluted compound was added to a 384 wells plate at 50 μL HepG2.2.15 cell per well (3000 cells per well), the highest final concentration in the experiment is 150 μM (200 fold dilution). The plate was cultured at 37° C. in an incubator with CO2 for 4 days, and cytotoxicity of the compound was detected using CellTiter Glo agent.
The cytotoxicity of the compound was calculated using the following formulate, cytotoxicity (%)=100−(detection value/mean of DMSO control wells values×100) CC50 values were calculated by a four parametric nonlinear regression model using Graphpad Prism 5 software to manage concentration−cytotoxicity (%).

HBV = experiment: Test of anti HBV activity in vitro (viral DNA by qPCR); assay type: cell-based; settings: Hepatitis B virus; HepG2.2.15 cells, viral DNA in cell culture supernatant by qPCR; read-out: EC50 values of the compound of the invention on viral replication
Summary of the method: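 HepG2.2.15 cells (integrated HBV genome) were grown to confluence, then treated with compound in 4-fold dilutions from 4 μM final (0.5% DMSO). Secreted viral DNA in supernatant was quantified by SYBR qPCR against an HBV plasmid standard curve; EC50 from four-parameter nonlinear regression of concentration versus copy number.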

Structure (SMILES)	CC50 at 4 days [1] [nM]	pEC50 (HBV)
COC(=O)C1=C(CN2CCN3C(=O)N(c4nc(-c5ccc(C(C)(C)C(=O)O)cc5)cs4)C[C@@H]3C2)NC(c2nccs2)=N[C@H]1c1ccc(F)cc1Cl [Example 17, 2-(4-(2-((S)-7-(((R)-6-(2-chloro-4-fluorophenyl)-5-(methoxycarbonyl)-2-(thiazol-2-yl)-3,6-dihydropyrimidin-4-yl)methyl)-3-oxohexahydroimidazo[1,5-a]pyrazin-2(3H)-yl)thiazol-4-yl)phenyl)-2-methylpropionic acid]	> 150000	8.22
COC(=O)C1=C(CN2CCN3C(=O)N(c4ccc(Oc5ccc(C(=O)N(CCO)CCO)cc5)cc4)C[C@@H]3C2)NC(c2nccs2)=N[C@H]1c1ccc(F)cc1Cl [Example 64, (R)-methyl 6-(((S)-2-(4-(4-(bis(2-hydroxyethyl)carbamoyl)phenoxy)phenyl)-3-oxohexahydroimidazo[1,5-a]pyrazin-7(1H)-yl)methyl)-4-(2-chloro-4-fluorophenyl)-2-(thiazol-2-yl)-1,4-dihydropyrimidine-5-carboxylate]	> 150000	7.60
COC(=O)C1=C(CN2CCN3C(=O)N(c4ccc(Oc5ccc(C(=O)N6CCC(CO)CC6)cc5)cc4)C[C@@H]3C2)NC(c2nccs2)=N[C@H]1c1ccc(F)cc1Cl [Example 60, (R)-methyl 4-(2-chloro-4-fluorophenyl)-6-(((S)-2-(4-(4-(4-(hydroxymethyl)piperidine-1-carbonyl)phenoxy)phenyl)-3-oxohexahydroimidazo[1,5-a]pyrazin-7(1H)-yl)methyl)-2-(thiazol-2-yl)-1,4-dihydropyrimidine-5-carboxylate]	> 150000	7.49
COC(=O)C1=C(CN2CCN3C(=O)N(c4nc(-c5ccc(C(=O)O)c(F)c5)cs4)C[C@@H]3C2)NC(c2nccs2)=N[C@H]1c1ccc(F)cc1Cl [Example 137, 4-(2-((S)-7-(((R)-6-(2-chloro-4-fluorophenyl)-5-(methoxycarbonyl)-2-(thiazol-2-yl)-3,6-dihydropyrimidin-4-yl)methyl)-3-oxohexahydroimidazo[1,5-a]pyrazin-2(3H)-yl)thiazol-4-yl)-2-fluorobenzoic acid]	> 150000	8.00
COC(=O)C1=C(CN2CCN3C(=O)N(c4ccc(=O)n(-c5ccc(C(=O)O)cc5F)c4)C[C@@H]3C2)NC(c2nccs2)=N[C@H]1c1ccc(F)cc1Cl [Example 80, 4-(5-((S)-7-(((R)-6-(2-chloro-4-fluorophenyl)-5-(methoxycarbonyl)-2-(thiazol-2-yl)-3,6-dihydropyrimidin-4-yl)methyl)-3-oxohexahydroimidazo[1,5-a]pyrazin-2(3H)-yl)-2-oxopyridin-1(2H)-yl)-3-fluorobenzoic acid]	> 150000	7.80
COC(=O)C1=C(CN2CCN3C(=O)N(c4ccc(N5CCO[C@H](CCC(=O)O)C5)cc4)C[C@@H]3C2)NC(c2nccs2)=N[C@H]1c1ccc(F)cc1Cl [Example 20, 3-((R)-4-(4-((S)-7-(((R)-6-(2-chloro-4-fluorophenyl)-5-(methoxycarbonyl)-2-(thiazol-2-yl)-3,6-dihydropyrimidin-4-yl)methyl)-3-oxohexahydroimidazo[1,5-a]pyrazin-2(3H)-yl)phenyl)morpholin-2-yl)propionic acid]	> 150000	8.40
COC(=O)C1=C(CN2CCN3C(=O)N(c4ccc(Oc5ccc(C(=O)N(CCO)Cc6ccccc6)cc5)cc4)C[C@@H]3C2)NC(c2nccs2)=N[C@H]1c1ccc(F)cc1Cl [Example 63, (R)-methyl 6-(((S)-2-(4-(4-(benzyl(2-hydroxyethyl)carbamoyl)phenoxy)phenyl)-3-oxohexahydroimidazo[1,5-a]pyrazin-7(1H)-yl)methyl)-4-(2-chloro-4-fluorophenyl)-2-(thiazol-2-yl)-1,4-dihydropyrimidine-5-carboxylate]	> 150000	7.56
COC(=O)C1=C(CN2CCN3C(=O)N(c4nc(-c5cc(F)cc(C(=O)O)c5)cs4)C[C@@H]3C2)NC(c2nccs2)=N[C@H]1c1ccc(F)cc1Cl [Example 138, 3-(2-((S)-7-(((R)-6-(2-chloro-4-fluorophenyl)-5-(methoxycarbonyl)-2-(thiazol-2-yl)-3,6-dihydropyrimidin-4-yl)methyl)-3-oxohexahydroimidazo[1,5-a]pyrazin-2(3H)-yl)thiazol-4-yl)-5-fluorobenzoic acid]	> 150000	7.47
COC(=O)C1=C(CN2CCN3C(=O)N(c4ccc(Oc5cc(F)cc(C(=O)O)c5)cn4)C[C@@H]3C2)NC(c2nccs2)=N[C@H]1c1ccc(F)cc1Cl [Example 79, 3-((6-((S)-7-(((R)-6-(2-chloro-4-fluorophenyl)-5-(methoxycarbonyl)-2-(thiazol-2-yl)-3,6-dihydropyrimidin-4-yl)methyl)-3-oxohexahydroimidazo[1,5-a]pyrazin-2(3H)-yl)pyridin-3-yl)oxy)-5-fluorobenzoic acid]	> 150000	7.54
COC(=O)C1=C(CN2CCN3C(=O)N(c4ccc(Oc5ccc(C(=O)NC(C)(C)CO)cc5)cc4)C[C@@H]3C2)NC(c2nccs2)=N[C@H]1c1ccc(F)cc1Cl [Example 68, (R)-methyl 4-(2-chloro-4-fluorophenyl)-6-(((S)-2-(4-(4-((1-hydroxy-2-methylprop-2-yl)carbamoyl)phenoxy)phenyl)-3-oxohexahydroimidazo[1,5-a]pyrazin-7(1H)-yl)methyl)-2-(thiazol-2-yl)-1,4-dihydropyrimidine-5-carboxylate]	> 150000	7.95
COC(=O)C1=C(CN2CCN3C(=O)N(c4ccc(-c5ccc(CCC(=O)O)cc5)cc4)C[C@@H]3C2)NC(c2nccs2)=N[C@H]1c1ccc(F)cc1Cl [Example 126, 3-(4′-((S)-7-(((R)-6-(2-chloro-4-fluorophenyl)-5-(methoxycarbonyl)-2-(thiazol-2-yl)-3,6-dihydropyrimidin-4-yl)methyl)-3-oxohexahydroimidazo[1,5-a]pyrazin-2(3H)-yl)-[1,1′-biphenyl]-4-yl)propanoic acid]	> 150000	8.17
COC(=O)C1=C(CN2CCN3C(=O)N(c4ccc(N5CCC(C(=O)O)CC5)cc4F)C[C@@H]3C2)NC(c2nccs2)=N[C@H]1c1ccc(F)cc1Cl [Example 31, 1-(4-((S)-7-(((R)-6-(2-chloro-4-fluorophenyl)-5-(methoxycarbonyl)-2-(thiazol-2-yl)-3,6-dihydropyrimidin-4-yl)methyl)-3-oxohexahydroimidazo[1,5-a]pyrazin-2(3H)-yl)-3-fluorophenyl)piperidine-4-carboxylic acid]	> 150000	7.80
COC(=O)C1=C(CN2CCN3C(=O)N(c4ccc(Sc5ccc(C#N)cc5)cc4)C[C@@H]3C2)NC(c2nccs2)=N[C@H]1c1ccc(F)cc1Cl [Example 98, (R)-methyl 4-(2-chloro-4-fluorophenyl)-6-(((S)-2-(4-((4-cyanophenyl)thio)phenyl)-3-oxohexahydroimidazo[1,5-a]pyrazin-7(1H)-yl)methyl)-2-me (thiazol-2-yl)-1,4-dihydropyrimidine-5-carboxylate]	> 150000	7.92
